Consider 19 molecules from ChEMBL document CHEMBL5365451, “Discovery of CVN417, a Novel Brain-Penetrant α6-Containing Nicotinic Receptor Antagonist for the Modulation of Motor Dysfunction” (J Med Chem, 2023).

Data set [1] can be described thus: Metabolic stability in human liver microsome assessed as clearance at 10 uM incubated upto 2 hrs by LC-MS/MS analysis. The data set is classed as ADME. The note with it: liver microsomes, read-out: CLH. On the technique in general: Liver microsomes are vesicles of endoplasmic reticulum, rich in cytochrome P450 enzymes.
Data set [2] can be described thus: Metabolic stability in rat liver microsome assessed as clearance at 10 uM incubated upto 2 hrs by LC-MS/MS analysis. Type of data set: ADME. The note with it: liver microsomes, read-out: CLH.
The nature of data set [3]: Antagonist activity at human alpha6-alpha3/beta2/beta3 V273S mutant nAChR expressed in HEK293 cells assessed as nicotine-induced intracellular calcium release incubated for 15 mins by FLIPR analysis. The data set is classed as cell-based. The note with it: HEK293, 0.25 h. On the technique in general: A change in cytosolic calcium serves as a functional read-out for many receptors and channels.

The target in data set [4] is Neuronal acetylcholine receptor; alpha3/beta4 (Homo sapiens, UniProt P30926+P32297). As to the kind of experiment: Antagonist activity at human alpha3/beta4 nAChR expressed in HEK293 cells assessed as nicotine-induced intracellular calcium release incubated for 15 mins by FLIPR analysis. The data set is classed as cell-based.
Chain of Neuronal acetylcholine receptor; alpha3/beta4 (P30926 whole entry): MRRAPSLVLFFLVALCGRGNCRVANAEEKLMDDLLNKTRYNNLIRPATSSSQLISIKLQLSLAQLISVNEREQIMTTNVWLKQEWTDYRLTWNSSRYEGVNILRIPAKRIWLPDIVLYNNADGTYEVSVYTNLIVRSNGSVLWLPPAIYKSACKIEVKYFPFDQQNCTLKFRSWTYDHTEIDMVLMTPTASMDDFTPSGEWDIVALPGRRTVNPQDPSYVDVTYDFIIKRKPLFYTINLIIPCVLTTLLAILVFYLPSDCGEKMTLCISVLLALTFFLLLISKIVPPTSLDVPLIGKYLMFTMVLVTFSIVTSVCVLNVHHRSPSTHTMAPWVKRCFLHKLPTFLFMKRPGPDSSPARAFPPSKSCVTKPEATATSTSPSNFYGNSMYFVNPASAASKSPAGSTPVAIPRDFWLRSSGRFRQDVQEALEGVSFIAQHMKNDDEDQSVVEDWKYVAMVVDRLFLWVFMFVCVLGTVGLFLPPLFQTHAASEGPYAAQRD
Chain of Neuronal acetylcholine receptor; alpha3/beta4 (P32297 whole entry): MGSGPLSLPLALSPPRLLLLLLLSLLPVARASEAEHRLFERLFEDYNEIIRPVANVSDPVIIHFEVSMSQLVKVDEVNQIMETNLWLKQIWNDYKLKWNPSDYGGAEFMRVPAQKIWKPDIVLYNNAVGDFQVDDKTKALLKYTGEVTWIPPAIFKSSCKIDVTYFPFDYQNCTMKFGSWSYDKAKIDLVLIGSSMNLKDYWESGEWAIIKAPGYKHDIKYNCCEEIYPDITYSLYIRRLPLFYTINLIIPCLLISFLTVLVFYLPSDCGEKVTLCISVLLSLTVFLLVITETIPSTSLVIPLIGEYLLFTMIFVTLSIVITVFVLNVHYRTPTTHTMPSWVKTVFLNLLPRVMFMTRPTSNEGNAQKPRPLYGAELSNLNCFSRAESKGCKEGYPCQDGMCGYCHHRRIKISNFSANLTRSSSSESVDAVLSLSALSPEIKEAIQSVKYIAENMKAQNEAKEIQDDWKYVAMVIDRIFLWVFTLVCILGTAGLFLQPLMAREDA
The nature of data set [5]: Volume of distribution at steady state in Sprague-Dawley rat at 0.5 mg/kg, iv by LC-MS/MS analysis. Type of data set: ADME, organism-based. The note with it: in vivo, read-out: Vdss.
Data set [6] is described as follows: Oral bioavailability in Sprague-Dawley rat 3 mg/kg by LC-MS/MS analysis. The data set is classed as ADME, organism-based. The note with it: in vivo.
Data set [7] concerns the target Neuronal acetylcholine receptor; alpha4/beta2 (Homo sapiens, UniProt P17787+P43681). Kind of data set: Antagonist activity at human alpha4/beta2 nAChR expressed in HEK293 cells assessed as nicotine-induced intracellular calcium release incubated for 15 mins by FLIPR analysis. Type of data set: cell-based.
Data set [8] can be described thus: Metabolic stability in rat liver microsome assessed as clearance preincubated for 60 mins followed by NADPH addition and measured after 60 mins by LC-MS/MS analysis. Type of data set: ADME. The conditions noted are these: liver microsomes, time 120 min, read-out: CLH.
Data set [9] is described as follows: Drug exposure in Sprague-Dawley rat brain at 3 mg/kg, po measured for 2 hrs by LC-MS/MS analysis. Type of data set: ADME, organism-based. The note with it: read-out: Drug uptake.
Data set [10] is described as follows: Metabolic stability in human liver microsome assessed as clearance preincubated for 60 mins followed by NADPH addition and measured after 60 mins by LC-MS/MS analysis. Type of data set: ADME. The note with it: liver microsomes, time 120 min, read-out: CLH.
A short description of data set [11]: Intrinsic clearance in Sprague-Dawley rat at 0.5 mg/kg, iv by LC-MS/MS analysis. Type of data set: ADME, organism-based. The conditions noted are these: in vivo.
For data set [12], the system named is Rattus norvegicus. As to the kind of experiment: Protection against tacrine-induced Sprague-Dawley rat tremulous jaw model assessed as decrease in tremor jaw movement at 25 mg/kg, po pretreated with compound for 90 mins followed by tacrine addition and measured after 5 mins. The conditions noted are these: time 95 min, 1.583 h. Type of data set: functional. On the set-up: scale not given: the % may be the effect or the level left.

Data set [13] relates to Rattus norvegicus. Kind of data set: Protection against tacrine-induced po dosed Sprague-Dawley rat tremulous jaw model assessed as decrease in tremor duration pretreated with compound for 90 mins followed by tacrine addition and measured after 5 mins. Type of data set: functional, organism-based. The conditions noted are these: dose 3-25 mg/kg, time 95.0 min.
The next data set has as its system Brain. As to the kind of experiment: Drug concentration in po dosed Sprague-Dawley rat brain measured after 2 hrs by LC-MS/MS analysis. Type of data set: functional, organism-based. The conditions noted are these: dose 3-25 mg/kg.

Chain of Neuronal acetylcholine receptor; alpha4/beta2 (P17787 whole entry): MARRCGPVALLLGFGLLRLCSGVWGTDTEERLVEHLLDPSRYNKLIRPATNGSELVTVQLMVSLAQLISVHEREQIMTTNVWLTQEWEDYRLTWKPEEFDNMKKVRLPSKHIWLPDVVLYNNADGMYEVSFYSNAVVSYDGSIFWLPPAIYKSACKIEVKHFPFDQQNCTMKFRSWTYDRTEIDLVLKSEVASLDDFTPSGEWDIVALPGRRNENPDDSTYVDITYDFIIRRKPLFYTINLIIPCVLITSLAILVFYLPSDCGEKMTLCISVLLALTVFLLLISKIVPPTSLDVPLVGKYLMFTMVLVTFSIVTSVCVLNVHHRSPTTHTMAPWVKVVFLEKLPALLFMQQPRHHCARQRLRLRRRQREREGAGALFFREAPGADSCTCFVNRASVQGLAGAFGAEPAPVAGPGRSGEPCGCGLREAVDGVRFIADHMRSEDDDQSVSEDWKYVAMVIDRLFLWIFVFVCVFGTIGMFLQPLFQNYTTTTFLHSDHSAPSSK
Chain of Neuronal acetylcholine receptor; alpha4/beta2 (P43681 whole entry): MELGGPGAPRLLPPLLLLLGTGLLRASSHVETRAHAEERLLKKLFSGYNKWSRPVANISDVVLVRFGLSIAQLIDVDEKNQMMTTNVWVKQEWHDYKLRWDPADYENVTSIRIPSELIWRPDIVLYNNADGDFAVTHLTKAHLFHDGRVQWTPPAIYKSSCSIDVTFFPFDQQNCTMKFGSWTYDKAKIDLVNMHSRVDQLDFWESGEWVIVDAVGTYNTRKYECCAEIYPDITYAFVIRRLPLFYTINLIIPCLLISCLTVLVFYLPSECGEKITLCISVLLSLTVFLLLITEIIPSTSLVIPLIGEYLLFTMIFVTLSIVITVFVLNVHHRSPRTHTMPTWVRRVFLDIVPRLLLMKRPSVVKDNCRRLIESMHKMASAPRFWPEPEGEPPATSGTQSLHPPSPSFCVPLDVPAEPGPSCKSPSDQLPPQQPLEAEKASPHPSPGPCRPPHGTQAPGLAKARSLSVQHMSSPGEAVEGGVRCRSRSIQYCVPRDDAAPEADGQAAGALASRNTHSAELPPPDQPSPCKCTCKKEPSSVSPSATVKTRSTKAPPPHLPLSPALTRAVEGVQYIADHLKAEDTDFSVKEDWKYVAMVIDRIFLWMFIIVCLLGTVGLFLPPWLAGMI

Take `[2H]C([2H])([2H])Oc1ccc(-c2cc(C(=O)N[C@H]3CCCN(C([2H])([2H])[2H])C3)nn2C([2H])([2H])[2H])c(Cl)c1`: the microsomal CLint at 10 µM in data set [1] was found to be 0.7 µL/min/mg; in data set [2], 11 µL/min/mg. Besides, in [3], the IC50 (in general, the midpoint of a concentration-inhibition curve) stood at 89 nM.
In the case of `COc1ccc(-c2cc(C(=O)N[C@H]3CN(C)CCC3(F)F)nn2C)c(Cl)c1`, the microsomal CLint at 10 µM in data set [1] worked out at 75.5 µL/min/mg; in data set [2] it was 204 µL/min/mg. Besides, the IC50 in data set [3] was 115 nM.
Turning to `CN1CCC[C@H](NC(=O)c2cc(-c3ccc(C(F)(F)F)cc3)n(C)n2)C1`, the figures for the IC50 in [4], in data set [7] and in [3] were 422 nM, 3730 nM and 93 nM, respectively. In data set [5], the Vd was 13 L/kg. Further, the bioavailability (usually dose-corrected exposure relative to a reference, in per cent) in data set [6] amounted to 17.3%. The microsomal CLint was 2.5 µL/min/mg in data set [8] and 9.6 µL/min/mg in [10]. Moreover, the concentration at 2 h in [9] is 1090 nM. The same molecule yielded a CL in [11] of 40.5 mL/min/kg.
In the case of `COc1ccc(-c2cc(C(=O)N[C@@H]3CN(C)CCC3(F)F)nn2C)c(Cl)c1`, the microsomal CLint at 10 µM in [1] is 61.3 µL/min/mg; in data set [2], below 6.4 µL/min/mg. Also, the 50% inhibitory concentration (IC50) in data set [3] was determined as 94 nM.
In the case of `CN1CCC[C@@H](NC(=O)c2cc(-c3ccc(C(F)(F)F)cc3Cl)n(C)n2)C1`, the IC50 in [3] was 76 nM.
Consider `CCCN(CCC)CCc1cccc2c1CC(=O)N2` [ROPINIROLE], for which, in the data set on Rattus norvegicus [12], the Activity is listed as 17.5%.
For `CN1CCC(NC(=O)c2cc(-c3ccc(C(F)(F)F)cc3)n(C)n2)CC1`, the IC50 was found to be 4960 nM in data set [4], 1040 nM in data set [7] and 139 nM in data set [3]. The Vd in [5] was determined as 25.7 L/kg. The same molecule yielded a bioavailability in data set [6] of 70.1%. Besides, the concentration at 2 h in [9] turned out to be 2970 nM. In addition, the CL in data set [11] came to 41.5 mL/min/kg.
Regarding `CN1CCC[C@@H](NC(=O)c2cc(-c3ccc(C(F)(F)F)cc3)n(C)n2)C1`, the concentration for half-maximal inhibition (IC50) in data set [4] was 637 nM; in [7] it was 2820 nM; in data set [3], 80 nM. Further, the Vd in [5] is 13.4 L/kg. For the same molecule, the bioavailability in data set [6] is above 100%. Besides, the microsomal CLint came to 3.5 µL/min/mg in data set [8] and 21.4 µL/min/mg in data set [10]. The concentration at 2 h in data set [9] worked out at 1910 nM. Besides, in data set [11], the CL was determined as 70 mL/min/kg.
Turning to `Cc1ccc(C)c(Cn2nc(C)cc2C(=O)N[C@@H]2C[C@H]3CCC[C@@H](C2)N3C)c1`, the IC50 in [3] amounted to 703 nM.
For `Cn1nc(C(=O)NCCN2CCCCC2)cc1-c1ccc(C(F)(F)F)cc1`, the IC50 in [4] was 450 nM; in data set [7], 3180 nM; in data set [3], 60 nM. The Vd in data set [5] worked out at 29.8 L/kg. Also, in data set [6], the bioavailability worked out at 82%. In addition, the microsomal CLint in data set [8] and in [10] was 3.1 µL/min/mg in each case. Also, the concentration at 2 h in data set [9] came to 524 nM. The CL in data set [11] worked out at 64.9 mL/min/kg.
For `CN1CCC[C@H](NC(=O)c2cc(-c3ccc(C(F)(F)F)cc3Cl)n(C)n2)C1`, in data set [3], the IC50 came out at 83 nM.
For the molecule `COc1ccc(-c2cc(C(=O)N[C@@H]3CCCN(C)C3)nn2C)cc1`, the half-inhibitory concentration (IC50) in [4] is above 10000 nM; in data set [7], 3500 nM; in data set [3] it was 230 nM.
With `Cn1nc(C(=O)NCC2CCCOC2)cc1-c1ccc(C(F)(F)F)cc1` (racemic), in data set [3], the IC50 was determined as 3290 nM.
Turning to `CN1CCC(NC(=O)c2cc(-c3ccc(C(F)(F)F)cc3)n(C)n2)C1` (racemic), the figures for the half-maximal inhibitory concentration (IC50) in [4], in data set [7] and in data set [3] were 2450 nM, 7720 nM and 132 nM, respectively. Also, in data set [5], the Vd is 18.5 L/kg. Further, the bioavailability in data set [6] came out at 18.1%. The microsomal CLint turned out to be 31.2 µL/min/mg in data set [8] and 28.9 µL/min/mg in [10]. Besides, the concentration at 2 h in [9] came to 948 nM. This molecule registered a CL in data set [11] of 47 mL/min/kg.
As to `COc1ccc(-c2cc(C(=O)N[C@H]3CCCN(C)C3)nn2C)cc1`, the results for the IC50 in [4], in data set [7] and in [3] were above 10000 nM, 2620 nM and 194 nM, respectively.
With `CN(C)C1(CNC(=O)c2cc(-c3ccc(C(F)(F)F)cc3)n(C)n2)CCCC1`, the IC50 in data set [4] was 1410 nM; in data set [7] it was 281 nM; in data set [3], 183 nM. Also, the Vd in data set [5] came out at 18.7 L/kg. In [6], this molecule had a bioavailability of 27.8%. Also, the concentration at 2 h in data set [9] was 30 nM. The molecule also registered a CL in data set [11] of 81.8 mL/min/kg.
`CN1[C@@H]2CCC[C@H]1C[C@H](NC(=O)c1cc(-c3ccc(C(F)(F)F)cc3)n(C)n1)C2`: the results for the IC50 in data set [4], in data set [7] and in data set [3] were 6250 nM, 993 nM and 133 nM, respectively. Besides, the Vd in data set [5] worked out at 23.4 L/kg. For the same molecule, the bioavailability in [6] was 86.6%. In addition, the microsomal CLint in data set [8] was 3.2 µL/min/mg; in [10], 1.2 µL/min/mg. Further, in data set [9], the concentration at 2 h was determined as 140 nM. Besides, in [11], the CL came out at 20.4 mL/min/kg.
Take `CN1CCC(NC(=O)c2cc(-c3ccc(C(F)(F)F)cc3)nn2C)CC1`: the half-maximal inhibitory concentration (IC50) in [3] amounted to 3840 nM.
On to `COc1ccc(-c2cc(C(=O)N[C@@H]3CCCN(C)C3)nn2C)c(Cl)c1`, for which the IC50 in [4] is 2090 nM; in data set [7], 563 nM; in data set [3] it was 77 nM. Also, the Activity result in the data set on Rattus norvegicus [13] was “Dose-Dependent Effect”. Besides, the Drug uptake entry in the data set with Brain is “Dose-Dependent Effect”.
